Assay results taken from ChEMBL document CHEMBL5291721, “A preclinical secondary pharmacology resource illuminates target-adverse drug reaction associations of marketed drugs” (Nat Commun, 2023).

Tests used:
[1] = target: Gamma-aminobutyric acid receptor subunit alpha-1/alpha-2/beta-2/gamma-2 (Homo sapiens, UniProt P14867+P18507+P47869+P47870); assay type: protein-complex assay
[2] = target: 5-hydroxytryptamine receptor 7 (Homo sapiens, UniProt P34969)
[3] = target: Gamma-aminobutyric acid type B receptor subunit 1 (Homo sapiens, UniProt Q9UBS5)
Gamma-aminobutyric acid type B receptor subunit 1, sequence (Q9UBS5 whole entry): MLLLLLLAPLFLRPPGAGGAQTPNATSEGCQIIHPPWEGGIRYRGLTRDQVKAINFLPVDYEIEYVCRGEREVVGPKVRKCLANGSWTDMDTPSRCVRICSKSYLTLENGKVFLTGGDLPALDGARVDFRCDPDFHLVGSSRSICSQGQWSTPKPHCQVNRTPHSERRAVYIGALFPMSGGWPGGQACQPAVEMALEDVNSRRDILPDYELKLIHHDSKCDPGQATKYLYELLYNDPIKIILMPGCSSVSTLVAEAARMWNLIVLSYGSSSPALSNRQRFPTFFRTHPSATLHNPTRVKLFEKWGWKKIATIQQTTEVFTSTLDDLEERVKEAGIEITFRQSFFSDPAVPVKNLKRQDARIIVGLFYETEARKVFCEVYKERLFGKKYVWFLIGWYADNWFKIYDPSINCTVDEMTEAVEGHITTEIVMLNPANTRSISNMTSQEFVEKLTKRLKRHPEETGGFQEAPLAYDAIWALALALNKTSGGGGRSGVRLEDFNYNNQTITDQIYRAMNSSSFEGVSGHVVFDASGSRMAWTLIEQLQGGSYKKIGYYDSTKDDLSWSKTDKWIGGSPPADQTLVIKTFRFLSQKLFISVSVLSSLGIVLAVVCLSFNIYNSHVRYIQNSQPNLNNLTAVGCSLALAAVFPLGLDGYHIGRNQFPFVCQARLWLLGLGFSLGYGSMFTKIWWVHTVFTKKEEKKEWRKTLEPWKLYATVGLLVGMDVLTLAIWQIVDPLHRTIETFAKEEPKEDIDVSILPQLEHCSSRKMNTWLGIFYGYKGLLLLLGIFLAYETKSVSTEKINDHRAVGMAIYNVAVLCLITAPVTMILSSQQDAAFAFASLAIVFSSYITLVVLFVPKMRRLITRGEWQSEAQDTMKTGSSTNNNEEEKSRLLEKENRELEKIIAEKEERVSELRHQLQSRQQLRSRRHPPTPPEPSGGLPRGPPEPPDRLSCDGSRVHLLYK

[4] = target: Sodium channel protein type 5 subunit alpha (Homo sapiens, UniProt Q14524); assay type: functional, cell-based
D(4) dopamine receptor = target: T1, D(4) dopamine receptor (Homo sapiens, UniProt P21917)
T1 sequence (P21917 whole entry): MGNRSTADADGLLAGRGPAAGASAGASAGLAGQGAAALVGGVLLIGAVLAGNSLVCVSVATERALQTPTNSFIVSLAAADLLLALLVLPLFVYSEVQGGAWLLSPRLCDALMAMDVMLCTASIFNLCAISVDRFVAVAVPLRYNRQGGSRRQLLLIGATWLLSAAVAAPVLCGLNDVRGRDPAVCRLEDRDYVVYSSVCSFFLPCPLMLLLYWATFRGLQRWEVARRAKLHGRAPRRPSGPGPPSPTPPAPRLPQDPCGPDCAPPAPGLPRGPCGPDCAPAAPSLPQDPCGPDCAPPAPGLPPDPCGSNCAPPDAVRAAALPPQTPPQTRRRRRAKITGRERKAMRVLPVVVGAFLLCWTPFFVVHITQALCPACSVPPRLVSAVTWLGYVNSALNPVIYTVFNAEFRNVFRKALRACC

[5] = target: T2, Muscarinic acetylcholine receptor M5 (Homo sapiens, UniProt P08912)
T2 sequence (P08912 whole entry): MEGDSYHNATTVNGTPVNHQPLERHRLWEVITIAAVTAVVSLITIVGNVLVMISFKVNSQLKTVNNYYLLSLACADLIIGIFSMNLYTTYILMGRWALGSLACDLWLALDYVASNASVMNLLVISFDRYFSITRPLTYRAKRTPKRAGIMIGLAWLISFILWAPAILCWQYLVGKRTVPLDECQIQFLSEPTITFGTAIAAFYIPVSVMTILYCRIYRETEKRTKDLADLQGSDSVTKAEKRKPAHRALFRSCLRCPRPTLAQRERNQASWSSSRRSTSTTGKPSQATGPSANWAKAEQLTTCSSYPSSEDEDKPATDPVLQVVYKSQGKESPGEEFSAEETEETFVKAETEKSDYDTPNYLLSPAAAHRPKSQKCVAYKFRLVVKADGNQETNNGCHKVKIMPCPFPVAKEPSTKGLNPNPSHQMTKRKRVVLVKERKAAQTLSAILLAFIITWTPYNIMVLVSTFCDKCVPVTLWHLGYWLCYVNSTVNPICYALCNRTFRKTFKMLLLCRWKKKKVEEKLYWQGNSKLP

[6] = target: T3, Alpha-1A adrenergic receptor (Homo sapiens, UniProt P35348)
T3 sequence (P35348 whole entry): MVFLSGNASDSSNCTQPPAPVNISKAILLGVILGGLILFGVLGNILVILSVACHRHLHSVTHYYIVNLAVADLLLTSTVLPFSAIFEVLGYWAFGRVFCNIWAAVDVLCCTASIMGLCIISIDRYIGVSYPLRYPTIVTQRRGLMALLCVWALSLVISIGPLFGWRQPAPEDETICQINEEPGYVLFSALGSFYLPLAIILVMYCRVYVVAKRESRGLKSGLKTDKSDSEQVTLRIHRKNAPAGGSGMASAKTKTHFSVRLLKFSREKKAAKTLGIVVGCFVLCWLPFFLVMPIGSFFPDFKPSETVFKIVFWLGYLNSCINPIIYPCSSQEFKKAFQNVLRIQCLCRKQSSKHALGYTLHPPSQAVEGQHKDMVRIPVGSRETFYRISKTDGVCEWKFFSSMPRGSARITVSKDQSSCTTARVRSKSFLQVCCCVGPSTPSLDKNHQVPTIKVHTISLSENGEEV

[7] = target: 5-hydroxytryptamine receptor 6 (Homo sapiens, UniProt P50406)
5-hydroxytryptamine receptor 6, sequence (P50406 whole entry): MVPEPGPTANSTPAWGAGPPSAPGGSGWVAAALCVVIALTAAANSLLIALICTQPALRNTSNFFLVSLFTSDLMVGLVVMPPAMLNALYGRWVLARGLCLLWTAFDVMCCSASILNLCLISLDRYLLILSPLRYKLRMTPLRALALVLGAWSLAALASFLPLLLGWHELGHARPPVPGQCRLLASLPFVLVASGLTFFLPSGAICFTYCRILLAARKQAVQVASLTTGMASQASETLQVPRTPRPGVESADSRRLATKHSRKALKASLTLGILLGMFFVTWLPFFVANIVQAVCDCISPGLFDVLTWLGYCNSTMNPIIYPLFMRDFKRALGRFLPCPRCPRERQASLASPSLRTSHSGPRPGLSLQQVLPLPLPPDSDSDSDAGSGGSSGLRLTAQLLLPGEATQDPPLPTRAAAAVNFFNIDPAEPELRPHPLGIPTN

Substance-P receptor = Substance-P receptor (Homo sapiens, UniProt P25103)
Cannabinoid receptor 1 = Cannabinoid receptor 1 (Homo sapiens, UniProt P21554); assay type: functional
Cannabinoid receptor 1, sequence (P21554 whole entry): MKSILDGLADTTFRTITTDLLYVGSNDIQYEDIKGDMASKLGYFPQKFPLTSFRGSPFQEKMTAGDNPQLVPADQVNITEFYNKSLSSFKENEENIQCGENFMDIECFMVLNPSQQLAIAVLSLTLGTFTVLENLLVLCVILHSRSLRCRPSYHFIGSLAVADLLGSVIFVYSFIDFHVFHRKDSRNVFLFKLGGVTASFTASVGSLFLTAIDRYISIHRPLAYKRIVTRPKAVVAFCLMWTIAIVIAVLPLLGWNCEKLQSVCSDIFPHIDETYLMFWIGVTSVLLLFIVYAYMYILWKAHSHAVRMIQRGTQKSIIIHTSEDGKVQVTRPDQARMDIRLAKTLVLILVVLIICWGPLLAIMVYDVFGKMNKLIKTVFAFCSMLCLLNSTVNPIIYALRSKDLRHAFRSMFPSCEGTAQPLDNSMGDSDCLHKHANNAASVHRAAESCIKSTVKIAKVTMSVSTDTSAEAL

[8] = target: T4, Muscarinic acetylcholine receptor M1 (Homo sapiens, UniProt P11229); assay type: functional, cell-based
T4 sequence (P11229 whole entry): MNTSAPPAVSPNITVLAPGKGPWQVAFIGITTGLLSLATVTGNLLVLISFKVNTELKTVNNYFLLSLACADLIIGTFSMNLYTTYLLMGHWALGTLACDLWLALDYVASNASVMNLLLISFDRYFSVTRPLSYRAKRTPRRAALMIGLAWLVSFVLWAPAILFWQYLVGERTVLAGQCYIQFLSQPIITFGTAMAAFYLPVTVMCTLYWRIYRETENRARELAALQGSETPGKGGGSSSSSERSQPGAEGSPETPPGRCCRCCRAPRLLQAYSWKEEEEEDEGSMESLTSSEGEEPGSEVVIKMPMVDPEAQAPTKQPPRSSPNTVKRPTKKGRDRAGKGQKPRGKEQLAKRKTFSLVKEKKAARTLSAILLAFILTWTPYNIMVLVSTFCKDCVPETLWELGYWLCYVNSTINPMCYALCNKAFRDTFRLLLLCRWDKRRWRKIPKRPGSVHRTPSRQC

[9] = target: T4, Muscarinic acetylcholine receptor M1; assay type: functional, cell-based; remark: listed apart in the source
[10] = target: Sodium-dependent serotonin transporter (Homo sapiens, UniProt P31645)
Sodium-dependent serotonin transporter, sequence (P31645 whole entry): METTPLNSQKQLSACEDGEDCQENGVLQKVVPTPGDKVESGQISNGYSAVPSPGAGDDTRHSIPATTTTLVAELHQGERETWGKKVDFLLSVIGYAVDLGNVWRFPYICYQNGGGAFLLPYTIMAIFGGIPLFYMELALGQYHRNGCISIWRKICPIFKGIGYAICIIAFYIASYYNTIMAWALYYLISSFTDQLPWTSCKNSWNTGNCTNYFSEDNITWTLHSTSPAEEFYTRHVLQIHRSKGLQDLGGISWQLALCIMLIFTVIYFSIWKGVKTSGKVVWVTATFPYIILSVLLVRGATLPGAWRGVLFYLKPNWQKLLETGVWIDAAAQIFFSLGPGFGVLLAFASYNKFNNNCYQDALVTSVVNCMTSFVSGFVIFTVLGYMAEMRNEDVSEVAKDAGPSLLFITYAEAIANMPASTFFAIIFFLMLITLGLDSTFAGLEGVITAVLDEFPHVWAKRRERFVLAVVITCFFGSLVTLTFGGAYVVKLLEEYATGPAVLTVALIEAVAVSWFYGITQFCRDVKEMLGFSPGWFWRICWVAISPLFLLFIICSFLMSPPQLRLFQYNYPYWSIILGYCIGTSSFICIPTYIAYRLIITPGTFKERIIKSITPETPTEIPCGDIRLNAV

[11] = target: T4, Muscarinic acetylcholine receptor M1; assay type: functional, cell-based; remark: listed apart in the source
Note: assay procedure not described here.

5-hydroxytryptamine receptor 7, sequence (P34969 whole entry): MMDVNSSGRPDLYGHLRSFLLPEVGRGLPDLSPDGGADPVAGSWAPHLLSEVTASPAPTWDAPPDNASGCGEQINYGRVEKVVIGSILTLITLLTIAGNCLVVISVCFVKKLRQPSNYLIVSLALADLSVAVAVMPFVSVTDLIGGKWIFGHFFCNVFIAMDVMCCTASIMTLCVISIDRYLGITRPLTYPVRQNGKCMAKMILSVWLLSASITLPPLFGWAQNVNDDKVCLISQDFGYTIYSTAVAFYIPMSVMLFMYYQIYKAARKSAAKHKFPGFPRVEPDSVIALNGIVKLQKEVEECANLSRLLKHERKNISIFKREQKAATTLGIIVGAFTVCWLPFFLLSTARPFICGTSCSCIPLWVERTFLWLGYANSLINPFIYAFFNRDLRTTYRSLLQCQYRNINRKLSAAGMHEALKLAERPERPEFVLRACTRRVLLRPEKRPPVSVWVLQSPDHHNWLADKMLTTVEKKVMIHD
Gamma-aminobutyric acid receptor subunit alpha-1/alpha-2/beta-2/gamma-2, sequence (P14867 whole entry): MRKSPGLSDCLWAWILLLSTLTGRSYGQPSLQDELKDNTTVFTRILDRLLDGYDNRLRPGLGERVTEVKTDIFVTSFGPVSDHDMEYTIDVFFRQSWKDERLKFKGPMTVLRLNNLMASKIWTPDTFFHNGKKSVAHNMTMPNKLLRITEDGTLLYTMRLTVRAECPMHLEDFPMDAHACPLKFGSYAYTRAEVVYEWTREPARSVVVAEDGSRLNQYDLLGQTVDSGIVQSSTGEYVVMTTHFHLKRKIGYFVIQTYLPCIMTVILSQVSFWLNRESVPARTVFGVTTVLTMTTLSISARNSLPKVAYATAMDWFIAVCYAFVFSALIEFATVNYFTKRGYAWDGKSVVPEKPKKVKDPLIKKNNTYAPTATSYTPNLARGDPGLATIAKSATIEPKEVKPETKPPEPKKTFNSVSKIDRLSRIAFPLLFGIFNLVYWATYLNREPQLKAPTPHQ
Gamma-aminobutyric acid receptor subunit alpha-1/alpha-2/beta-2/gamma-2, sequence (P47870 whole entry): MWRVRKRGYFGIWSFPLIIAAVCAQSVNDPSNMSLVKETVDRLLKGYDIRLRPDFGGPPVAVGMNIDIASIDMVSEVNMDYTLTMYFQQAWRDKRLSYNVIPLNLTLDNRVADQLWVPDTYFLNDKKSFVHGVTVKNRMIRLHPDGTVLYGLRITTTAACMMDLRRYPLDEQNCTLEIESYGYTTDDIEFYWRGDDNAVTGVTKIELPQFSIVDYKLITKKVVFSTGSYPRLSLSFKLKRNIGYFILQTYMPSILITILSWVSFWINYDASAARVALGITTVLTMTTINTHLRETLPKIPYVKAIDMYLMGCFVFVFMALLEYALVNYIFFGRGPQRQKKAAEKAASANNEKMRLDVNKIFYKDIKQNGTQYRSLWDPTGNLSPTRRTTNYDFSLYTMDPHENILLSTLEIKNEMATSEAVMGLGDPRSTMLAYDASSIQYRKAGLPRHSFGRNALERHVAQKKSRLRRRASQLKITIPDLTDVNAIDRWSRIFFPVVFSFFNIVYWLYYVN
Gamma-aminobutyric acid receptor subunit alpha-1/alpha-2/beta-2/gamma-2, sequence (P18507 whole entry): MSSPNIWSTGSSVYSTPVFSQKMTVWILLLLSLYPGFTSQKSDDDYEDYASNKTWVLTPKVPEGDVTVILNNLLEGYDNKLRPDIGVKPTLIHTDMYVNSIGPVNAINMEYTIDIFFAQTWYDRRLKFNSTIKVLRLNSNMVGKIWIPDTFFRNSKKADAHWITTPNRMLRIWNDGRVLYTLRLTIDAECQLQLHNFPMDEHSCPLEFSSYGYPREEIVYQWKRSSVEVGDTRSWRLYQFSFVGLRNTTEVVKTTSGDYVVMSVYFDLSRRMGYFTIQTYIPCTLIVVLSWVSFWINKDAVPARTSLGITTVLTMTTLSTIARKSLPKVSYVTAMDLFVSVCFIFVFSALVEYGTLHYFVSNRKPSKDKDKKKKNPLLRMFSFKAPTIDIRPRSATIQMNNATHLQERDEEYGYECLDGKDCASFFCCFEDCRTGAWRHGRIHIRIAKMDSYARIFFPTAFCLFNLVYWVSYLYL
Gamma-aminobutyric acid receptor subunit alpha-1/alpha-2/beta-2/gamma-2, sequence (P47869 whole entry): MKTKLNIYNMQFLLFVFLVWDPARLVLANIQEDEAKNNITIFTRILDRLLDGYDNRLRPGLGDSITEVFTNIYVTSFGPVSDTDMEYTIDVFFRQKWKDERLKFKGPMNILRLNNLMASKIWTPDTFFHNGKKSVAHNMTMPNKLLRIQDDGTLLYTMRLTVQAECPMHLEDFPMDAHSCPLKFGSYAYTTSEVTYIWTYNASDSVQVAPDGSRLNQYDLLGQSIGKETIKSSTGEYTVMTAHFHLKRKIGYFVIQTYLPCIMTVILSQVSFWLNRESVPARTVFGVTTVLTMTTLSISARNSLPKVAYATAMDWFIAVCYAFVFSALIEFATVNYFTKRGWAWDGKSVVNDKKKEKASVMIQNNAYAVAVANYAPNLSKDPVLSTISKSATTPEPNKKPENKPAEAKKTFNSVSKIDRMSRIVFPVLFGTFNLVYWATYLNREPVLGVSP

O=C(O)CCCCC1CCSS1 (stereo not drawn) [LIPOIC ACID, ALPHA]
AC50 [1]: > 30 µM

Cn1c(=O)cc(N2CCC[C@@H](N)C2)n(Cc2ccccc2C#N)c1=O [ALOGLIPTIN]
AC50 [2]: > 10 µM | AC50 [3]: > 10 µM | AC50 [4]: > 150 µM | AC50 (D(4) dopamine receptor): > 10 µM | AC50 [5]: > 10 µM | AC50 [6]: > 10 µM | AC50 [7]: > 10 µM | AC50 (Substance-P receptor): > 10 µM | AC50 (Cannabinoid receptor 1): > 10 µM

C[N@+]1(CCF)[C@@H]2CC[C@H]1C[C@@H](OC(=O)C(O)(c1ccccc1)c1ccccc1)C2
AC50 [8]: 0.0005 µM | AC50 [9]: > 30 µM

Nc1c2ccccc2nc2ccccc12 [AMINACRINE]
AC50 [10]: > 30 µM | AC50 [11]: > 30 µM
